Source: patent US9206241B2, “Modified prokaryotic ubiquitin-like protein and methods of use thereof” (priority 2012, dated 2015)
“Also recorded” adds a separate entry of the source.

Assays:
lysates of Mtb = test: Hydrolysis of substrate in Mtb lysates; assay type: biochemical, Mycobacterium tuberculosis
DopE10A = DopE10A (Mycobacterium tuberculosis, UniProt P9WNU9, E10A)

In the case of “MAQEQTKRGGGGGDDDDIAGSTAAGQERREKLTEETDDLLDEIDDV LEENAEDFVRAYVQKGG-Glu(AMC) [1a]”, the “hydrolysis of substrate in lysate” value (lysates of Mtb) is reported as “hydrolysis; also recorded: could not hydrolyze” and the “activity of DopE10A on the substrate” value (DopE10A) is reported as “no activity”.
